The text below walks through data of PMC9458111, “New 1,2,3-Triazole-Coumarin-Glycoside Hybrids and Their 1,2,4-Triazolyl Thioglycoside Analogs Targeting Mitochondria Apoptotic Pathway: Synthesis, Anticancer Activity and Docking Simulation” (Molecules, 2022).

One assay deals with caspase-7 in MCF-7 cells. Description: Caspase-7 level in MCF-7 cells (ELISA). The assay is classed as cell-based, human. Particulars: MCF-7, 24 h, versus 5-fluorouracil or untreated cells. The protocol: (§1) Referring to the cytotoxicity results, the 1,2,4-triazole-thioglycoside derivative 10 has a mitochondria-apoptotic effect on breast cancer cells through reduction of MTT by a mitochondrial enzyme. […] Along with that, such derivative elevated the release of cytochrome c into the cytosol in the treated MCF-7, in comparison with untreated one from 0.176 to 0.766 ng/ml due to disturbing mitochondrial outer membrane permeability (MOMP). In addition, the target 10 achieved better results than those afforded by from the standard 5-fluorouracil. Moreover, the level of caspase-7 was elevated in treated cells with the target 10 rather than that with 5-fluorouracil or the untreated cells as shown in Figure 4.
The micro-ELISA plate was provided in this kit pre-coated with a CASP-7-specific antibody. A biotinylated CASP-7 antibody and Avidin–horseradish peroxidase (HRP) conjugate were added. Get rid of the excess components. The substrate solution was added. Wells that contain CASP-7, biotinylated detection antibody, and Avidin-HRP conjugate will appear blue in color. The color turns yellow following the addition of sulfuric acid solution. The optical density (OD) was measured at a wavelength of 450 nm ±2 nm. […]

The test system of assay [1] is Bax protein in MCF-7 cells. Nature of the assay: Bax protein level in MCF-7 cells (ELISA). In kind it is cell-based, human. Particulars: MCF-7, 19.6 µM (IC50), 24 h. The protocol: as §1
Bax protein levels picogram per ml (Pg/mL) were evaluated according to previously reported procedure. Monoclonal antibody, specific to Bax captured on the plate, was added. After incubation, Streptavidin conjugated to Horseradish peroxidase was added. The reaction was then terminated by adding acid and optical density of the color produced measured at 450 nm.
(§2) Figure 4 Levels of Bax, Bcl-2, Bax/Bcl-2 ratio, cytochrome c and caspase-7 protein in MCF-7 cells after treatment with compound 10 and the standard drug for 24 h compared with the untreated one, 5-flu: 5-fluorouracil as a reference drug.
For orientation: ELISA stands for enzyme-linked immunosorbent assay.

Assay [2] relates to Bcl-2 protein in MCF-7 cells. Description: Bcl-2 protein level in MCF-7 cells (ELISA). In kind it is cell-based, human. To be noted: MCF-7, 19.6 µM (IC50), 24 h. As for the experimental part: as §1
Bcl-2 (ng/mL) in the samples and standards were estimated as reported. A biotin-conjugated antibody was added followed by streptavidin-HRP. The reaction is then terminated by adding acid and absorbance was measured at 450 nm.
as §2

In a further assay the target is VEGFR-2 (Homo sapiens, UniProt P35968). Nature of the assay: VEGFR-2 inhibitory assay (ELISA). The assay is classed as biochemical. To be noted: mean of three values; read-out: IC50 (Mean ± SEM), VEGFR-2. The protocol:
The cells were harvested, and the homogenates were prepared in saline using a tight pestle homogenizer until complete cell disruption. The kit uses a double-antibody sandwich enzyme-linked immunosorbent assay (ELISA) to determine the level of human VEGFR-2 in samples. A monoclonal antibody for VEGFR-2 was pre-coated onto 96-well plates. The test samples are added to the wells, and a biotinylated detection polyclonal antibody from goat specific for VEGFR-2 was added subsequently followed by washing with PBS buffer. Avidin-Biotin-Peroxidase complex was added, and the unbound conjugates were washed away with PBS buffer. HRP substrate TMB was used to visualize HRP enzymatic reaction. TMB was catalyzed by HRP to produce a blue color product that changed into yellow after adding acidic stop solution. The density of yellow color is proportional to the human VEGFR-2 amount of the sample captured in the plate. The chroma of color and the concentration of the human VEGFR-2 of the samples were positively correlated, and the optical density was determined at 450 nm. The level of human VEGFR-2 in samples was calculated (pg/ml) as duplicate determinations from the standard curve. Percent inhibition was calculated in comparison to control untreated cells.

VEGFR-2, sequence (P35968 20-1356): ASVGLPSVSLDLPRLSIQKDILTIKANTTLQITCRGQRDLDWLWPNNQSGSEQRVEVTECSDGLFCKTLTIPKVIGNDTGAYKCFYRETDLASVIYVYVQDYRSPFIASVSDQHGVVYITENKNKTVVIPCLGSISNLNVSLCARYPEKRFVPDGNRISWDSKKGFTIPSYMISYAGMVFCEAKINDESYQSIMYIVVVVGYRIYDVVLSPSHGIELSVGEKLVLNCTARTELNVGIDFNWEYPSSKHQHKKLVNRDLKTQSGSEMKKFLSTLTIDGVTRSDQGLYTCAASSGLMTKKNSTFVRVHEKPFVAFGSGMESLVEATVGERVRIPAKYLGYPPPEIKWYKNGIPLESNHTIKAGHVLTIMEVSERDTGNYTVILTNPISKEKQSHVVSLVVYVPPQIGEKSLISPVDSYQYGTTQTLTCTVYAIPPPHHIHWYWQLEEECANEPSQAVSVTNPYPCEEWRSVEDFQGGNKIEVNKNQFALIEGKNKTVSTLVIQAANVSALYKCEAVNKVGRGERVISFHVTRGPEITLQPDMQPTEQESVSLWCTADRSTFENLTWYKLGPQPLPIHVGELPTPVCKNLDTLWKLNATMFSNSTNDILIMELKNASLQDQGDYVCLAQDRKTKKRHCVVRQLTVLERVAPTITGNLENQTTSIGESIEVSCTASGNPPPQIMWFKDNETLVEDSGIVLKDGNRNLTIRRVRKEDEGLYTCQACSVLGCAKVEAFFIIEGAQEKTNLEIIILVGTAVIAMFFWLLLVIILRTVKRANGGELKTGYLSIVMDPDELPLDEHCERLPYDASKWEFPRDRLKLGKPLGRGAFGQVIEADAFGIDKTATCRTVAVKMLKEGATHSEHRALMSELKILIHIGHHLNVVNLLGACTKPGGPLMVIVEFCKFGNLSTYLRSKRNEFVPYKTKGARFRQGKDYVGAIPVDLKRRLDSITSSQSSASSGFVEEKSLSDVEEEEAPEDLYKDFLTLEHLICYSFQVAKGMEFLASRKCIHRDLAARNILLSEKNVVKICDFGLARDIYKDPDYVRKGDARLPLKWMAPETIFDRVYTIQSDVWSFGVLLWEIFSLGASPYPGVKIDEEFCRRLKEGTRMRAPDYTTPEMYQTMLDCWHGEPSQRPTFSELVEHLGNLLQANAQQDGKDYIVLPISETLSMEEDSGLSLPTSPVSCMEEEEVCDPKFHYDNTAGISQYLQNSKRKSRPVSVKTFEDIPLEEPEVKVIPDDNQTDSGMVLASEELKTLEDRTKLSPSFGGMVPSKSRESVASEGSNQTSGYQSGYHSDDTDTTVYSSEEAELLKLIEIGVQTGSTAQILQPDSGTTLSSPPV

Regarding `CCn1c(COc2ccc3c(-c4ccccc4)cc(=O)oc3c2)nnc1SC1OCC(O)C(O)C1O` [Compound 10, 4-Phenyl-7-((4-ethyl-5-(1-(β-D-xylopyranosyl)thio)-4H-1,2,4-triazol-3-yl)meth-oxy)-2H-chromen-2-one], the “Level of caspase-7 (in words)” value in the assay with caspase-7 in MCF-7 cells is on record as “elevated”. Also, in assay [1], the “Upregulation of pro-apoptotic Bax protein versus untreated cells” value was determined as 4 folds. In assay [2], the “Downregulation of anti-apoptotic Bcl-2 protein versus untreated cells” value is reported as 5.3 folds. The 50% inhibitory concentration (IC50) at VEGFR-2 was 790 ± 140 nM.

The IC50 is the concentration that inhibits the measured activity by half.
